Biological target: T1, rM3Ds (Rattus norvegicus, UniProt P08483, A177S/A238G/A489L/DEL261-437/DEL441-478/E258S/I253V/I483M/INS256[…]/K178L/K182A/K255R/K484R/K486H/L173F/L482A/M480V/R171S/R176Q/R179M/S481M/T174R/T181R/T257A/Y148C)
T1 construct: host or cells: HEK293T
T1 sequence (P08483 with tags, fused parts or gaps Y148C/R171S/L173F/T174R/R176Q/A177S/K178L/R179M/T181R/K182A/A238G/I253V/K255R/INS256[…]/T257A/E258S/DEL261-437/DEL441-478/M480V/S481M/L482A/I483M/K484R/K486H/A489L): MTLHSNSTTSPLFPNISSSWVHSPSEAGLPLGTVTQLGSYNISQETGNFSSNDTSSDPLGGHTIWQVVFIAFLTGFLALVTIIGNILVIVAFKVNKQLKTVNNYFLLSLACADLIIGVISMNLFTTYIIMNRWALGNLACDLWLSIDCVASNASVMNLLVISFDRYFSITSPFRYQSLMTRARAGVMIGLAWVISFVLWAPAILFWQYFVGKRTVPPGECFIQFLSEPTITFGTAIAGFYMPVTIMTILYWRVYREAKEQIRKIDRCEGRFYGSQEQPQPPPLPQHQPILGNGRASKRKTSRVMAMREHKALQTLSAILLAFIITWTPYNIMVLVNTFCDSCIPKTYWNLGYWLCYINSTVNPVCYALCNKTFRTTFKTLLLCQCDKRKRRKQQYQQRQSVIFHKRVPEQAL
Assay: cAMP assay (CRE-luciferase reporter) in HEK293T cells expressing rM3Ds
Assay type: cell-based
Details: 100 μM of ACh, rM3Ds-transfected cells

CC(=O)OCC[N+](C)(C)C [ACh, acetylcholine chloride]
luciferase activity: modest elevation in luciferase activity

Source: paper PMC12015759, “A humanized Gs-coupled DREADD for circuit and behavior modulation” (Frontiers in Cellular Neuroscience, 2025)
